# Laboratory results as given in paper PMC7180491, “Synthesis and Biological Evaluation of Novel (thio)semicarbazone-Based Benzimidazoles as Antiviral Agents against Human Respiratory Viruses” (Molecules, 2020).
# Entries after “also recorded” stand apart in the source; their conditions may differ. Read-outs that look alike come from different tables or passages of the source.
# B1: UDA: UDA lectin, reference in the coronavirus 229E assay (protein, UniProt P11218 24-372, looked up)
# Lectin/endochitinase 1: QRCGSQGGGGTCPALWCCSIWGWCGDSEPYCGRTCENKCWSGERSDHRCGAAVGNPPCGQDRCCSVHGWCGGGNDYCSGSKCQYRCSSSVRGPRVALSGNSTANSIGNVVVTEPLFDQMFSHRKDCPSQGFYSYHSFLVAAESFPAFGTIGDVATRKREVAAFLAHISQATSGERSDVENPHAWGLCHINTTTVTENDFCTSSDWPCAAGKKYSPRGPIQLTHNFNYGLAGQAIGEDLIQNPDLVEKDPIISFKTALWFWMSQHDNKPSCHDIVLNANSAANRIPNKGVIGNIISRAFGHDDFAVRSSSIGFYKRYCDMLGVSYGHDLKYWFDNTPSSEFQRIQMRVAA
# Columns and labels:
# [1] = system: Respiratory syncytial virus (RSV; strain Long); assay: microbe, parasite or virus in culture; format: cell-based
# [2] = system: Influenza A/H1N1 (A/Ned/378/05); assay: microbe, parasite or virus in culture; format: cell-based, human influenza virus; settings: read-out: Antiviral EC50 Influenza A/H1N1
# [3] = system: Influenza A/H3N2 (A/HK/7/87); assay: microbe, parasite or virus in culture; format: cell-based, human influenza virus; settings: read-out: Antiviral EC50 Influenza A/H3N2
# [4] = system: human coronavirus 229E; assay: Antiviral assay against human coronavirus 229E in HEL cells, MTS readout; format: cell-based
# [5] = system: four mammalian cell lines
# [6] = in vitro; settings: African green monkey
# [7] = in vitro; settings: dog
# [8] = in vitro; settings: human
# [9] = in vitro; settings: human; remark: listed apart in the source
# [10] = system: Respiratory syncytial virus (RSV; strain Long); format: cell-based; settings: read-out: Anti-RSV EC50, microscopic method
# [11] = system: Hep-2 cells
# [12] = system: HEL cells
# [13] = system: Vero cells
# [14] = system: MDCK cells
# [15] = human respiratory syncytial virus, HEp-2, read-out: Antiviral EC50 RSV
# [16] = Human coronavirus 229E, MTS assay, HEL cells
molecule,measurement,setting,value
"CC(=NNC(N)=S)c1ccc2c(c1)nc(Cn1nc3ccccc3n1)n2CCCN(C)C [Compound 19, 2-(1-{2-[(2H-Benzo[d][1,2,3]triazol-2-yl)methyl]-1-[3-(N,N-dimethylamino)propyl]-1H-benzo[d]imidazol-5-yl}ethylidene)hydrazine-1-carbothioamide]",Anti-RSV activity (in words),[1],inactive
same,melting point,,212 to 214 °C
"dextran sulfate MW 10,000 [DS-10,000, reference compound]",Antiviral EC50 RSV,[1],0.01 µg/mL
"CCN(CC)CCCn1c(Cc2ccc(OC)cc2)nc2cc(C(C)=NNC(N)=O)ccc21 [Compound 17, 2-(1-{1-[3-(N,N-Diethylamino)propyl]-2-(4-methoxybenzyl)-1H-benzo[d]imidazol-5-yl}-ethylidene)hydrazine-1-carboxamide]",EC50,[1]; [15],> 100 µM
same,EC50,"[2]; Influenza A virus, H1N1, MDCK",47 µM
same,EC50,"[3]; Influenza A virus, H3N2, MDCK",> 100 µM
same,EC50,[4]; [16],41 µM
same,melting point,,190 to 192 °C
same,Cytotoxicity (in words),[5],produced cytotoxicity in two of the four cell lines
same,CC50,[6],43 µM
same,CC50,[7],> 100 µM
CC(=NNC(N)=S)c1ccc2c(c1)nc(Cn1nc3ccccc3n1)n2CCN(C)C,melting point,,214 to 217 °C
"CCN(CC)CCCn1c(Cc2ccccc2)nc2cc(C(C)=NNC(N)=O)ccc21 [Compound 16, 2-(1-{1-[3-(N,N-Diethylamino)propyl]-2-benzyl-1H-benzo[d]imidazol-5-yl}ethylidene)-hydrazine-1-carboxamide]",EC50,[1]; [15],> 100 µM
same,EC50,"[2]; Influenza A virus, H1N1, MDCK",47 µM
same,EC50,"[3]; Influenza A virus, H3N2, MDCK",> 100 µM
same,EC50,[4]; [16],39 µM
same,CC50,[8],> 100 µM
same,CC50,[9],> 100 µM
same,CC50,[6],> 100 µM
same,CC50,[7],> 100 µM
"CC(=NNC(N)=S)c1ccc2c(c1)nc(Cc1ccc(Cl)cc1)n2CCCN(C)C [Compound 4, 2-{1-[2-(4-Chlorobenzyl)-1-[3-(N,N-dimethylamino)propyl]-1H-benzo[d]imidazol-5-yl]-ethylidene}hydrazine-1-carbothioamide]",Anti-RSV activity (in words),[1],poorly effective; also recorded: inactive
same,melting point,,110 to 111 °C
"NC(=O)c1ncn([C@@H]2O[C@H](CO)[C@@H](O)[C@H]2O)n1 [Ribavirin, reference compound]",EC50,[1]; [15],6.7 µM
same,EC50,"[2]; Influenza A virus, H1N1, MDCK",7.4 µM
same,EC50,"[3]; Influenza A virus, H3N2, MDCK",7.5 µM
same,CC50,[8],> 250 µM
same,CC50,[6],> 250 µM
"CCN(CC)CCCn1c(Cc2ccccc2)nc2cc(C(C)=NNC(N)=S)ccc21 [Compound 8, 2-(1-{2-Benzyl-1-[3-(N,N-diethylamino)propyl]-1H-benzo[d]imidazol-5-yl}ethylidene)-hydrazine-1-carbothioamide]",EC50,[1]; [15],> 100 µM
same,EC50,"[2]; Influenza A virus, H1N1, MDCK",38 µM
same,EC50,"[3]; Influenza A virus, H3N2, MDCK",> 100 µM
same,EC50,[4]; [16],56 µM
same,CC50,[8],> 100 µM
same,CC50,[9],> 100 µM
same,CC50,[6],44 µM
same,CC50,[7],> 100 µM
"2-(1-{2-[(2H-Benzo[d][1,2,3]triazol-2-yl)methyl]-1-[3-(N,N-diethylamino)propyl]-1H-benzo[d]imidazol-5-yl}ethylidene)hydrazine-1-carbothioamide [Compound 21]",Anti-RSV activity (in words),[1],inactive
CC(=NNC(N)=O)c1ccc2c(c1)nc(Cc1ccc(Cl)cc1)n2CCCN(C)C,melting point,,211 to 212.5 °C
CCN(CC)CCCn1c(Cc2ccc(OC)cc2)nc2cc(C(C)=NNC(N)=S)ccc21,melting point,,180.7 to 182.9 °C
"2-(1-{2-[(2H-Benzo[d][1,2,3]triazol-1-yl)methyl]-1-[3-(N,N-dimethylamino)propyl]-1H-benzo[d]imidazol-5-yl}ethylidene)hydrazine-1-carbothioamide [Compound 22]",EC50,[1]; read-out: Antiviral EC50 RSV,7 µM
same,EC50,[2],41 µM
same,EC50,[3],> 100 µM
same,EC50,[4],> 100 µM
same,EC50,[10],8.9 µM
same,CC50,[11],> 100 µM
same,CC50,[12],100 µM
same,CC50,[13],> 100 µM
same,CC50,[14],> 100 µM
CC(=NNC(N)=O)c1ccc2c(c1)nc(Cn1nc3ccccc3n1)n2CCN(C)C,melting point,,209 to 212 °C
"CC(=O)N[C@H]1[C@H]([C@H](O)[C@H](O)CO)OC(C(=O)O)=C[C@@H]1N=C(N)N [Zanamivir, reference compound]",EC50,"[2]; Influenza A virus, H1N1, MDCK",0.6 µM
same,EC50,"[3]; Influenza A virus, H3N2, MDCK",31 µM
same,CC50,[7],> 100 µM
B1,Antiviral EC50 Coronavirus 229E,[4],2.2 µg/mL
same,CC50 HEL,[12],>100 µg/mL
